Measurements published in patent US20260285857A1, “BICYCLIC AND HETEROCYCLIC AMIDE COMPOUNDS” (priority 2024, published 2026).

Test system: immunoglobulin light chain protein WIL-FL T46L
Test: Differential scanning fluorimetry (thermal shift) assay
Assay type: binding
Conditions: Table B; temperature shift [Tm]compound-[Tm]vehicle; recombinant WIL-FL T46L

Row | Compound | DSF
1 | Cc1cc(N2CC[C@](C)(c3ccccc3)C2)cn2nc(C34CC(CO3)C4N3CC4(CCN(c5cccc(C(=O)O)n5)C4)NC3=O)nc12 (stereo partly drawn) [Compound 531, 6-[3-[1-[8-methyl-6-[(3R)-3-methyl-3-phenyl-pyrrolidin-1-yl]-[1,2,4]triazolo[1,5-a]pyridin-2-yl]-2-oxabicyclo[2.1.1]hexan-5-yl]-2-oxo-1,3,7-triazaspiro[4.4]nonan-7-yl]pyridine-2-carboxylic acid] | ***** (>2.5° C.=*****)
2 | Cc1cc(N2CC[C@](C)(c3ccccc3)C2)cn2nc(C34CC(CO3)C4N3CC4(CCC4)NC3=O)nc12 (stereo partly drawn) [Compound 532, 7-(1-(8-methyl-6-((R)-3-methyl-3-phenylpyrrolidin-1-yl)-[1,2,4]triazolo[1,5-a]pyridin-2-yl)-2-oxabicyclo[2.1.1]hexan-5-yl)-5,7-diazaspiro[3.4]octan-6-one] | ***** (>2.5° C.=*****)
3 | Cc1cc(N2CC[C@](C)(c3ccccc3)C2)cn2nc(C34CC(CO3)C4NC(=O)C3(C)CN(c4cccc(C(=O)O)n4)C3)nc12 (stereo partly drawn) [Compound 533, 6-(3-methyl-3-((1-(8-methyl-6-((R)-3-methyl-3-phenylpyrrolidin-1-yl)-[1,2,4]triazolo[1,5-a]pyridin-2-yl)-2-oxabicyclo[2.1.1]hexan-5-yl)carbamoyl)azetidin-1-yl)picolinic acid] | ***** (>2.5° C.=*****)
4 | C[C@]1(c2ccccc2)CCN(c2cc(CO)c3nc(C45CC(CO)(CO4)C5C(N)=O)nn3c2)C1 (some centres unmarked) [Compound 536] | ***** (>2.5° C.=*****)
5 | Cc1cc(N2CC[C@](C)(c3ccccc3)C2)cn2nc(C34CC(C(=O)O)(CO3)C4C(=O)O)nc12 (stereo partly drawn) [Compound 537, 1-(8-methyl-6-((R)-3-methyl-3-phenylpyrrolidin-1-yl)-[1,2,4]triazolo[1,5-a]pyridin-2-yl)-2-oxabicyclo[2.1.1]hexane-4,5-dicarboxylic acid] | **** (>1.5-2.5° C.=****)
6 | Cc1n[nH]c(C2C3(NC(=O)[C@@H]4CC[C@H](C(=O)O)O4)COC2(c2nc4c(C)cc(N5CC[C@](C)(c6ccccc6)C5)cn4n2)C3)n1 (stereo partly drawn) [Compound 538, (2R,5S)-5-((5-(3-methyl-1H-1,2,4-triazol-5-yl)-1-(8-methyl-6-((R)-3-methyl-3-phenylpyrrolidin-1-yl)-[1,2,4]triazolo[1,5-a]pyridin-2-yl)-2-oxabicyclo[2.1.1]hexan-4-yl)carbamoyl)tetrahydrofuran-2-carboxylic acid] | ***** (>2.5° C.=*****)
7 | Cc1cc(N2CC[C@](C)(c3ccccc3)C2)cn2nc(C34CC(N)(CO3)C4c3nc(C)n(C)n3)nc12 (some centres unmarked) [Compound 539] | ***** (>2.5° C.=*****)
8 | CC(=O)NC12COC(c3nc4c(C)cc(N5CC[C@](C)(c6ccccc6)C5)cn4n3)(C1)C2c1nc(C)n(C)n1 (some centres unmarked) [Compound 540] | ***** (>2.5° C.=*****)
9 | Cc1nc([C@H]2[C@@]3(C(C)(C)O)CO[C@]2(c2nc4c(C)cc(N5CC[C@](C)(c6ccccc6)C5)cn4n2)C3)n[nH]1 [Compound 541] | ***** (>2.5° C.=*****)
10 | Cc1nc([C@@H]2[C@]3(C(C)(C)O)CO[C@@]2(c2nc4c(C)cc(N5CC[C@](C)(c6ccccc6)C5)cn4n2)C3)n[nH]1 [Compound 542] | ***** (>2.5° C.=*****)
11 | CC(=O)N[C@@]12CO[C@@](c3nc4c(C)cc(N5CC[C@](C)(c6ccccc6)C5)cn4n3)(C1)[C@@H]2CO [Compound 544, N-((1S,4S,5S)-5-(hydroxymethyl)-1-(8-methyl-6-((R)-3-methyl-3-phenylpyrrolidin-1-yl)-[1,2,4]triazolo[1,5-a]pyridin-2-yl)-2-oxabicyclo[2.1.1]hexan-4-yl)acetamide] | ***** (>2.5° C.=*****)
12 | Cc1cc(N2CC[C@](C)(c3ccccc3)C2)cn2nc(C34CC(C(=O)O)(CO3)C4c3nc(N)n[nH]3)nc12 (stereo partly drawn) [Compound 545, 5-(3-amino-1H-1,2,4-triazol-5-yl)-1-[8-methyl-6-[(3R)-3-methyl-3-phenyl-pyrrolidin-1-yl]-[1,2,4]triazolo[1,5-a]pyridin-2-yl]-2-oxabicyclo[2.1.1]hexane-4-carboxylic acid] | ***** (>2.5° C.=*****)
13 | Cc1cc(N2CC[C@](C)(c3ccccc3)C2)cn2nc(C34CC(N5CCC(C(=O)O)CC5=O)(CO3)C4CO)nc12 (stereo partly drawn) [Compound 546, 1-(5-(hydroxymethyl)-1-(8-methyl-6-((R)-3-methyl-3-phenylpyrrolidin-1-yl)-[1,2,4]triazolo[1,5-a]pyridin-2-yl)-2-oxabicyclo[2.1.1]hexan-4-yl)-2-oxopiperidine-4-carboxylic acid] | ***** (>2.5° C.=*****)
14 | CCS(=O)(=O)Nc1n[nH]c(C2C3(CNC(=O)CC(C)(C)C(=O)O)COC2(c2nc4c(C)cc(N5CC[C@](C)(c6ccccc6)C5)cn4n2)C3)n1 (stereo partly drawn) [Compound 547, 4-[[5-[3-(ethylsulfonylamino)-1H-1,2,4-triazol-5-yl]-1-[8-methyl-6-[(3R)-3-methyl-3-phenyl-pyrrolidin-1-yl]-[1,2,4]triazolo[1,5-a]pyridin-2-yl]-2-oxabicyclo[2.1.1]hexan-4-yl]methylamino]-2,2-dimethyl-4-oxo-butanoic acid] | ***** (>2.5° C.=*****)
15 | CCS(=O)(=O)Nc1n[nH]c(C2C3(CN)COC2(c2nc4c(C)cc(N5CC[C@](C)(c6ccccc6)C5)cn4n2)C3)n1 (some centres unmarked) [Compound 548] | ***** (>2.5° C.=*****)
16 | Cc1cc(N2CC[C@](C)(c3ccccc3)C2)cn2nc(C34CC(CO3)C4c3nc(NC(=O)c4cccc(C(=O)O)n4)n[nH]3)nc12 (some centres unmarked) [Compound 549] | ***** (>2.5° C.=*****)
17 | Cc1cc(N2CC[C@](C)(c3ccccc3)C2)cn2nc(C34CC(CO3)C4c3nc(NC(=O)C4CC(C(=O)O)C4)n[nH]3)nc12 (some centres unmarked) [Compound 550] | ***** (>2.5° C.=*****)
18 | CCOC(=O)Nc1n[nH]c(C2C3COC2(c2nc4c(C)cc(N5CC[C@](C)(c6ccccc6)C5)cn4n2)C3)n1 (some centres unmarked) [Compound 551] | ***** (>2.5° C.=*****)
19 | Cc1cc(N2CC[C@](C)(c3ccccc3)C2)cn2nc(C34CC(CO3)C4c3nc(NC(=O)N4CC(C(=O)O)C4)n[nH]3)nc12 (some centres unmarked) [Compound 554] | ***** (>2.5° C.=*****)
20 | Cc1cc(N2CC[C@](C)(c3ccccc3)C2)cn2nc(C34CC(CO3)C4c3nc(NC(=O)C4CC(C)(C(=O)O)C4)n[nH]3)nc12 (some centres unmarked) [Compound 555] | ***** (>2.5° C.=*****)
21 | Cc1cc(N2CC[C@](C)(c3ccccc3)C2)cn2nc(C34CC(CO3)C4c3nc(N)nn3C(=O)C3CC(C)(C(=O)O)C3)nc12 (some centres unmarked) [Compound 556] | ***** (>2.5° C.=*****)
22 | Cc1cc(N2CC[C@](C)(c3ccccc3)C2)cn2nc(C34CC(CO3)C4c3nc(NC(=O)[C@@H]4C[C@H]4C(=O)O)n[nH]3)nc12 (some centres unmarked) [Compound 557] | ***** (>2.5° C.=*****)
23 | Cc1cc(N2CC[C@](C)(c3ccccc3)C2)cn2nc(C34CC(CO3)C4c3nc(NC(=O)c4cccnc4C(=O)O)n[nH]3)nc12 (some centres unmarked) [Compound 558] | ***** (>2.5° C.=*****)
24 | Cc1cc(N2CC[C@](C)(c3ccccc3)C2)cn2nc(C34CC(CO3)C4c3nc(NC(=O)CC4(C(=O)O)CC4)n[nH]3)nc12 (some centres unmarked) [Compound 559] | ***** (>2.5° C.=*****)
25 | Cc1cc(N2CC[C@](C)(c3ccccc3)C2)cn2nc(C34CC(CO3)C4c3nc(NC(=O)C4CC5(CC(C(=O)O)C5)C4)n[nH]3)nc12 (some centres unmarked) [Compound 560] | ***** (>2.5° C.=*****)
26 | Cc1cc(N2CC[C@](C)(c3ccccc3)C2)cn2nc(C34CC(CO3)C4c3nc(NS(=O)(=O)[C@H]4CC[C@@H](C(=O)O)CC4)n[nH]3)nc12 (some centres unmarked) [Compound 561] | ***** (>2.5° C.=*****)
